For one series, the system named is Triticum aestivum L. Kind of series: Triticum test, phytotoxicity (main root length). Type of series: in vivo. Particulars: 10–1000 µM. The procedure: Phytobiological testing (Triticum test) was performed by the Constantinescu method which consists in determining the maximum active dilution of a compound. Depending on the duration of action, it can influence root elongation and the […] film. […] Embryonic wheat roots were obtained by germinating homogeneous wheat caryopses in Linhart pots. Then the caryopses with a main root length of 1 cm were placed in the test solutions. For the determination of the action of each compound, five dilutions in the concentration range of 10–1000 µM were obtained and 11 caryopses were placed in them. Petri dishes containing 15 mL of diluted solution were kept under constant conditions of temperature (25 °C), and humidity (60%), in the absence of light. […] The results were expressed in comparison with a 1% DMSO control.
Statistical analyses were performed using the computing and programming environment R, R, v. 4.2.1 [68], under Rstudio, v. 2022.07.2+576 “Spotted Wakerobin” for Windows (RStudio, PBC, Boston, 2022), both for the Triticum and Artemia tests. It used a parametric mixed-effects model (R package “lme4”) and a robust mixed-effects model (R package “robustlmm”), in which root length measurements (Triticum) from all three days were used as the dependent variable, whereas compound, concentration and time were treated as fixed effects, with time (day of measurement) also treated as a random effect. Assessing statistical significance for mixed-effects statistical models is controversial and complex, but as a pragmatic way of working, we have estimated p-values using the Kenward–Rogers approximation (R package “sjPlot”). A variety of R base functions and R packages were used to diagnose the regression models (“car” [72], “MASS” [73], and “gvlma” [74]). Mixed boxplot–dotplot plots were generated using the “ggplot2” package.
The “drc” R package was used to estimate IC50 values for the Triticum bioassay by nonlinear modeling. For Triticum, the relationship between root length and concentration was modeled using Weibull functions with 2, 3, or 4 parameters, depending on the data distribution, the models being selected from a range of several models with different functions and parameters, based on the Akaike’s information criterion (AIC).

Series [1] relates to MCF-7 breast adenocarcinoma cells. Description: MTS cytotoxicity assay, MCF-7. Type of series: cell-based, human. For orientation: Tetrazolium assays rely on reduction of a dye to a coloured formazan, in cell work by metabolically active cells.
Series [2] relates to SK-OV-3 ovary adenocarcinoma cells. Kind of series: MTS cytotoxicity assay, SK-OV-3. Format: cell-based, human. To be noted: Homo sapiens.

Where two headings read alike, the source gives them in different places.

In the case of `CCOC(=O)c1cc(CC)n2nc(-c3ccc(F)cc3)ccc12` [Compound 5e, Ethyl 7-ethyl-2-(4-fluorophenyl)pyrrolo[1,2-b]pyridazine-5-carboxylate], in the series on Triticum aestivum L. (vs 1% DMSO control), the “effect on root length” value is recorded as “concentration-dependent inhibitory effect”. In addition, the half-maximal inhibitory concentration (IC50) in the series with Triticum aestivum L. (Triticum aestivum, 72 h, Triticum root length, measured over three days) is 607 µM; in series [1] (Homo sapiens, MCF7, MCF-7, 24 h, read-out: IC50 MCF-7 24 h), ≥ 400 µM; in series [1] (Homo sapiens, MCF7, MCF-7, 48 h, read-out: IC50 MCF-7 48 h) it was ≥ 400 µM; in series [2] (SK-OV-3, 24 h, read-out: IC50 Sk-OV-3 24 h), ≥ 400 µM; in series [2] (SK-OV-3, 48 h, read-out: IC50 Sk-OV-3 48 h), ≥ 400 µM. The viability at 400 µM in series [1] (Homo sapiens, MCF7, MCF-7, 400 μM, 48 h, read-out: cell viability) amounted to 73.1%. Moreover, the cell viability entry in series [1] (MCF-7, 100–400 μM, 48 h) is “less than 90%”.

By IC50 is commonly meant the concentration that inhibits the measured activity by half. A word on the viability: it is a read-out of living cells in per cent, often relative to untreated cells.

The values are drawn from publication PMC10380841, “Synthesis, Characterization and Cytotoxic Evaluation of New Pyrrolo[1,2-b]pyridazines Obtained via Mesoionic Oxazolo-Pyridazinones” (International Journal of Molecular Sciences, 2023).
